Several values for one entry are separate records, joined by “and”; a condition that tells them apart may be missing. Equal values may be shown once. Read-outs that look alike come from different tables or passages of the source.
Columns and labels:
[1] = system: maximal electroshock induced seizures (tonic hind limb extension); conditions: cited from earlier work
[2] = system: metrazole induced clonic seizures; conditions: cited from earlier work; for protective index (TD50/ED50): comparison compounds, seizure model not stated
[3] = system: hippocampal kindled seizures; experiment: Hippocampal kindling assay in rats; type: in vivo; conditions: Rattus norvegicus
Protocol: In a third model, the hippocampal kindling assay was used to identify new drug candidates effective for the treatment of difficult-to-control seizure types, focal seizures and complex partial seizures, as well as compounds that may be effective as mood stabilizer for treating bipolar disorder, and was conducted according to the protocol described therein.
Briefly, this test was conducted by using a bipolar stimulating electrode which was implanted in the hippocampus of rats, and the rats were kindled according to a described method. One week after implantation of the electrodes, the rats were stimulated with supra-threshold trains of 200 μA and 50 Hz for 10 seconds every 30 minutes for 6 hours on alternate days until the animals were fully kindled. […] The behavioral seizures were scored according to the following criteria (“seizure score”): stage 1—mouth and facial clonus; stage 2—stage 1 plus head nodding; stage 3—stage 2 plus forelimb clonus; stage 4—stage 3 plus rearing; and stage 5—stage 4 plus repeated rearing and falling.

[4] = system: 6 Hz (32 mA) seizures; experiment: Psychomotor seizure (6 Hz, 32 mA) assay in mice; type: in vivo; conditions: Mus musculus
[5] = system: 6 Hz (44 mA) seizures; experiment: Psychomotor seizure (6 Hz, 44 mA) assay in mice; type: in vivo; conditions: Mus musculus
[6] = system: minimal neurotoxicity; experiment: Neurotoxicity (gait and stance assay, TD50) in rats; type: in vivo, rat; conditions: for Toxicity, fraction of rats: rat p.o, 50 mg/kg
Protocol: (§1) Neurotoxicity assays are design to assess the effect of putative neurotoxicants on the normal activity of the nervous system, which can adversely disrupt or cause neuronal death, and damage other parts of the nervous system. The median neurological toxic dose (TD50) is used for quantization of neurotoxicity.
The neurotixicity studies were conducted according to the protocol described in White, H. S., et al., in “General principles. Discovery and preclinical development of antiepileptic drugs”, 5th edition, Levy R H, Mattson R H, Meldrum B S, Perucca E. (editors); Antiepileptic drugs; Lippincott-Raven; Philadelphia: 2002. pp. 36-48.
Neurotoxicity of the α-halo-2,2,3,3-tetramethylcyclopropanecarboxy compounds of the present embodiments was assessed in rats treated therewith by oral administration and observed in the “gait and stance” assay, which assesses minimal neurotoxicity. The neurotoxicity studies were conducted according to the protocol described in White H S. et al., General principles-Discovery and preclinical development of antiepileptic drugs, in: Antiepileptic Drugs, 5th edition, R H Wilkins, Philadelphia 2002, pp. 36-48.

[7] = system: motor impairment; experiment: Toxicity observed in mice (6 Hz 44 mA test line of Table 3); type: in vivo
Excerpt: as §1

[8] = system: metrazole induced clonic seizures; experiment: Subcutaneous metrazol seizure threshold test (scMet) in rats; conditions: for ED50: Rattus norvegicus; for Fraction of rats which responded to the treatment: scMet rat model; for ScMet, fraction of rats: rat p.o, 50 mg/kg
[9] = system: minimal neurotoxicity; conditions: cited from earlier work
[10] = system: maximal electroshock induced seizures (tonic hind limb extension); experiment: Maximal electroshock seizure test (MES) in rats; type: in vivo; conditions: rat p.o, 50 mg/kg
[11] = system: maximal electroshock induced seizures; conditions: mice models injected intraperitoneally; cited from earlier work
[12] = system: teratogenicity; experiment: Mouse model for VPA-induced teratogenicity; conditions: unpublished results
[13] = system: neuropathic pain; conditions: spinal nerve ligated rat models; cited from earlier work
[14] = rat scMet models, literature comparison

CC1(C)C(C(=O)NC(N)=O)C1(C)C [TMC-Urea, 2,2,3,3-tetramethylcyclopropanecarbonyl urea]
protective index, TD50-to-ED50 ratio ([1]; maximal electroshock (MES) tests): 18.5
protective index (TD50/ED50) [2]: 18.5
ED50 [2, 14]: 92 mg/kg

CC1(C)C(C)(C)C1(F)C(N)=O [Compound 1, α-fluoro-2,2,3,3-tetramethylcyclopropanecarboxamide]
ED50 [3]: 29.5 mg/kg and 180 µmol/kg
ED50 [4]: < 50 mg/kg and < 310 µmol/kg
ED50 [5]: ~50 mg/kg and ~310 µmol/kg
Toxicity (TD50) ([6]; rats, oral administration): 117 mg/kg
Toxicity [7]: Minimal motor
ED50 ([8]; po): 6 mg/kg and 40 µmol/kg
protective index (TD50/ED50) ([8]; rat, in vivo, po): 19.5
Fraction of rats which responded to the treatment ([8]; dose 2 mg/kg): 0/8
Fraction of rats which responded to the treatment ([8]; dose 6 mg/kg): 5/8
Fraction of rats which responded to the treatment ([8]; dose 12.5 mg/kg): 6/8
Fraction of rats which responded to the treatment ([8]; dose 25 mg/kg): 8/8

CC1(C)C(C(=O)NCC(N)=O)C1(C)C [N-2,2,3,3-tetramethylcyclopropylcarbonyl-glycinamide]
protective index (TD50/ED50) [2]: higher than 6.1
ED50 [2, 14]: greater than 250 mg/kg
TD50 ([9]; oral administration to rats, literature comparison): above 500 mg/kg

CONC(=O)C1C(C)(C)C1(C)C [Compound VI, N-methoxy-2,2,3,3-tetramethylcyclopropanecarboxamide]
ED50 ([1]; MES tests, rats injected intraperitoneally): 57 mg/kg
ED50 ([2]; scMet tests, rats injected intraperitoneally): 9.8 mg/kg

CC1(C)C(C)(C)C1(C)C(N)=O [Compound 4, 1,2,2,3,3-pentamethylcyclopropanecarboxamide]
MES, fraction of rats ([10]; 0.25 hours after dosing): 0/4
MES, fraction of rats ([10]; 0.5 hours after dosing): 0/4
MES, fraction of rats ([10]; 1.0 hours after dosing): 0/4
MES, fraction of rats ([10]; 2.0 hours after dosing): 0/4
MES, fraction of rats ([10]; 4.0 hours after dosing): 0/4
Toxicity, fraction of rats ([6]; 0.25 hours after dosing): 0/4
Toxicity, fraction of rats ([6]; 0.5 hours after dosing): 0/4
Toxicity, fraction of rats ([6]; 1.0 hours after dosing): 0/4
Toxicity, fraction of rats ([6]; 2.0 hours after dosing): 0/4
Toxicity, fraction of rats ([6]; 4.0 hours after dosing): 0/4
ED50 ([8]; sc, read-out: ED50 (not determined quantitatively, estimated)): < 50 mg/kg
ScMet, fraction of rats ([8]; 0.25 hours after dosing): 0/4
ScMet, fraction of rats ([8]; 0.5 hours after dosing): 0/4
ScMet, fraction of rats ([8]; 1.0 hours after dosing): 1/4
ScMet, fraction of rats ([8]; 2.0 hours after dosing): 1/4
ScMet, fraction of rats ([8]; 4.0 hours after dosing): 0/4

CC1(C)C(C(=O)Nc2nnc(S(N)(=O)=O)s2)C1(C)C [Compound VII, N-(1,3,4-thiadiazole-2-sulfonamide)-2,2,3,3-tetramethylcyclopropanecarboxamide]
MES-ED50 ([1]; orally treated rat models): 9.2 mg/kg
MES-ED50 [11]: 17 mg/kg
neurotoxicity ([9]; at 500 mg/kg doses): none-neurotoxic
teratogenicity [12]: teratogenic

CNC(=O)C1C(C)(C)C1(C)C [Compound IV, N-methyl-2,2,3,3-tetramethylcyclopropanecarboxamide]
potency as therapeutic for neuropathic pain [13]: equipotent to GABApentin
protective index (TD50/ED50) [2]: 2
neurotoxicity ([9]; rat, in vivo): non-neurotoxic

— patent publication US8518979B2, “Alpha-halo- and alpha-alkyl-cyclopropylcarboxy compounds and uses thereof” (Yissum Research Development Company of the Hebrew …, priority 2007, dated 2013)
